Laboratory results reported in patent publication US8143403B2 (Bristol-Myers Squibb Company, priority 2008, dated 2012).

These compounds were tested against T1, Human CGRP Receptor (Homo sapiens, UniProt O60894+Q16602) (assay: Radioligand binding assay, [125I]-CGRP displacement on SK-N-MC membranes). Details: displacement of [125I]-CGRP (18 pM final), 2 h room temperature.
T1 construct: Crude membranes were prepared from SK-N-MC cells expressing CGRP receptors; endogenous in cells; host or cells: SK-N-MC cells (crude membranes)
T1 sequence (Q16602 23-461): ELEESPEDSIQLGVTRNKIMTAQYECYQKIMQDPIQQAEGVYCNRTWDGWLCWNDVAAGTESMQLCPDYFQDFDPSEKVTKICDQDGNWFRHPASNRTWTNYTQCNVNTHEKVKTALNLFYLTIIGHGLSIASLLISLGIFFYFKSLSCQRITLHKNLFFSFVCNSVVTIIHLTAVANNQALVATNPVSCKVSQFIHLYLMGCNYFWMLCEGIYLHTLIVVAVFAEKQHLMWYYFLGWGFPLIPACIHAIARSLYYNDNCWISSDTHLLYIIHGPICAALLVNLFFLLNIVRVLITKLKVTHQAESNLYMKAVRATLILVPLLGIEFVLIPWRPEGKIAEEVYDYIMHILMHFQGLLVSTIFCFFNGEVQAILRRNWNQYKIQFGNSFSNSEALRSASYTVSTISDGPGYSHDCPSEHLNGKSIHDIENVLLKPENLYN
T1 sequence (O60894 27-148): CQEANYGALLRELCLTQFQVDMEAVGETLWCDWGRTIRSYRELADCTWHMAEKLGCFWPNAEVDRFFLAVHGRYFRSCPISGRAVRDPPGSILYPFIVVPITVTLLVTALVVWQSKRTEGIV
Protocol: Tissue Culture. SK-N-MC cells were grown at 37° C. in 5% CO2 as a monolayer in medium consisting of MEM with Earle's salts and L-glutamine (Invitrogen) supplemented with 10% fetal bovine serum (Invitrogen).
Membrane Preparation. Crude membranes were prepared from SK-N-MC cells expressing CGRP receptors. The cells were rinsed twice with phosphate-buffered saline (155 mM NaCl, 3.3 mM Na2HPO4, 1.1 mM KH2PO4, pH 7.4), and incubated for 5-10 min. at 4° C. in hypotonic lysis buffer consisting of 10 mM Tris (pH 7.4) and 5 mM EDTA. The cells were transferred from plates to polypropylene tubes (16×100 mm) and homogenized using a polytron. Homogenates were centrifuged at 32,000×g for 30 min. The pellets were resuspended in cold hypotonic lysis buffer with 0.1% mammalian protease inhibitor cocktail (Sigma) and assayed for protein concentration. The SK-N-MC homogenate was aliquoted and stored at −80° C. Radioligand Binding Assay. The compounds of invention were solubilized and carried through serial dilutions using 100% DMSO. Aliquots from the compound serial dilutions were further diluted 25 fold into assay buffer (50 mM Tris-Cl pH 7.5, 5 mM MgCl2, 0.005% Triton X-100) and transferred (volume 50 μl) into 96 well assay plates. [^125I]-CGRP (GE Healthcare or Perkin-Elmer) was diluted to 72 pM in assay buffer and a volume of 50 μl was added to each well. SK-N-MC membranes were thawed, diluted in assay buffer with fresh 0.1% mammalian protease inhibitor cocktail (Sigma), and re-homogenized. SK-N-MC homogenate (7 μg/well) was added in a volume of 100 μl. The assay plates were then incubated at room temperature for 2 h. Assays were stopped by addition of excess cold wash buffer (50 mM Tris-Cl pH 7.5, 0.1% BSA) immediately followed by filtration over glass fiber filters (Whatman GF/B) previously soaked in 0.5% PEI. Non-specific binding was defined with 1 μM beta-CGRP (Bachem). Protein bound radioactivity was determined using a gamma or scintillation counter. The resulting data was analyzed using a four parameter competitive binding equation (XLfit v2.0) and the IC50 was defined as the concentration of a compound of invention required to displace 50% of radioligand binding. Final assay concentration of [^125I]-CGRP was 18 pM. […] All compounds of invention were evaluated in at least two separate experiments.
O=C(O[C@@H]1CC[C@@H](c2cc(F)ccc2F)Cc2cccnc21)N1CCC(n2c(=O)[nH]c3ncccc32)CC1 (racemic) [Example 11, (6,9-trans)-6-(2,5-Difluorophenyl)-6,7,8,9-tetrahydro-5H-cyclohepta[b]pyridin-9-yl 4-(2-oxo-2,3-dihydro-1H-imidazo[4,5-b]pyridin-1-yl)piperidine-1-carboxylate] gave an IC50 of 4.14 nM.
Compound O=C(O[C@@H]1CC[C@@H](c2cccc(F)c2F)Cc2cccnc21)N1CCC(n2c(=O)[nH]c3ncccc32)CC1 (relative stereo) [Example 2] has an IC50 of 0.23 nM.
Work on O=C(O[C@@H]1CC[C@@H](c2cccc(F)c2F)Cc2cccnc21)N1CCC(N2CCc3ccccc3NC2=O)CC1 (relative stereo) [Example 3, (6,9-anti)-6-(2,3-difluorophenyl)-6,7,8,9-tetrahydro-5H-cyclohepta[b]pyridin-9-yl 4-(2-oxo-4,5-dihydro-1H-benzo[d][1,3]diazepin-3(2H)-yl)piperidine-1-carboxylate] yielded an IC50 of 1.25 nM.
With N#Cc1ccc2c(n1)[C@H](OC(=O)N1CCC(n3c(=O)[nH]c4ncccc43)CC1)CC[C@@H](c1cccc(F)c1F)C2 (relative stereo) [Example 4, (6,9-trans)-2-cyano-6-(2,3-difluorophenyl)-6,7,8,9-tetrahydro-5H-cyclohepta[b]pyridin-9-yl 4-(2-oxo-2,3-dihydro-1H-imidazo[4,5-b]pyridin-1-yl)piperidine-1-carboxylate] the IC50 was 0.44 nM.
Work on O=C(C[C@@H]1CC[C@H](c2cccc(F)c2F)Cc2cccnc21)N1CCC(n2c(=O)[nH]c3ncccc32)CC1 (relative stereo) [Example 5, 1-(1-(2-((6,9-Cis)-6-(2,3-difluorophenyl)-6,7,8,9-tetrahydro-5H-cyclohepta[b]pyridin-9-yl)acetyl)piperidin-4-yl)-1H-imidazo[4,5-b]pyridin-2(3H)-one] yielded an IC50 of 4.04 nM.
Work on O=C(O[C@@H]1CC[C@@H](c2ccccc2)Cc2cccnc21)N1CCC(n2c(=O)[nH]c3ncccc32)CC1 (relative stereo) [Example 10, (6,9-Trans)-6-Phenyl-6,7,8,9-tetrahydro-5H-cyclohepta[b]pyridin-9-yl 4-(2-oxo-2,3-dihydro-1H-imidazo[4,5-b]pyridin-1-yl)piperidine-1-carboxylate] yielded an IC50 of 8.89 nM.
With O=C(O[C@@H]1CC[C@@H](c2ccc(F)c(F)c2)Cc2cccnc21)N1CCC(n2c(=O)[nH]c3ncccc32)CC1 (relative stereo) [Example 12, (6,9-Trans)-6-(3,4-Difluorophenyl)-6,7,8,9-tetrahydro-5H-cyclohepta[b]pyridin-9-yl 4-(2-oxo-2,3-dihydro-1H-imidazo[4,5-b]pyridin-1-yl)piperidine-1-carboxylate] the IC50 was 7.41 nM.
For O=C(C[C@@H]1CC[C@@H](c2cccc(F)c2F)Cc2cccnc21)N1CCC(n2c(=O)[nH]c3ncccc32)CC1 (single isomer, unassigned) [Example 6], the IC50 was 0.89 nM.
In the case of O=C(C[C@H]1CC[C@H](c2cccc(F)c2F)Cc2cccnc21)N1CCC(n2c(=O)[nH]c3ncccc32)CC1 (single isomer, unassigned) [Example 7], the IC50 is reported as over 100 nM.
With O=C(N[C@@H]1CC[C@@H](c2cccc(F)c2F)Cc2cccnc21)N1CCC(n2c(=O)[nH]c3ncccc32)CC1 (single isomer, unassigned) [Example 8] the IC50 was 1.6 nM.
O=C1CCC(c2cccc(F)c2F)CCC1OC(=O)N1CCC(n2c(=O)[nH]c3ncccc32)CC1 (centres unmarked) [Example 1, 5-(2,3-difluorophenyl)-2-oxocycloheptyl 4-(2-oxo-2,3-dihydro-1H-imidazo[4,5-b]pyridin-1-yl)piperidine-1-carboxylate] showed an IC50 of 2.86 nM.
For O=C(N[C@H]1CC[C@H](c2cccc(F)c2F)Cc2cccnc21)N1CCC(n2c(=O)[nH]c3ncccc32)CC1 [Example 9, N-((6S,9S)-6-(2,3-difluorophenyl)-6,7,8,9-tetrahydro-5H-cyclohepta[b]pyridin-9-yl)-4-(2-oxo-2,3-dihydro-1H-imidazo[4,5-b]pyridin-1-yl)piperidine-1-carboxamide], the IC50 was over 1000 nM.
For Nc1cnc2c(c1)C[C@H](c1cccc(F)c1F)CC[C@H]2NC(=O)N1CCC(n2c(=O)[nH]c3ncccc32)CC1 [Example 14, N-((6R,9R)-3-amino-6-(2,3-difluorophenyl)-6,7,8,9-tetrahydro-5H-cyclohepta[b]pyridin-9-yl)-4-(2-oxo-2,3-dihydro-1H-imidazo[4,5-b]pyridin-1-yl)piperidine-1-carboxamide], the IC50 was 0.25 nM.
In the case of CN(C)c1cnc2c(c1)C[C@H](c1cccc(F)c1F)CC[C@H]2OC(=O)N1CCC(n2c(=O)[nH]c3ncccc32)CC1 [Example 15, (6R,9R)-6-(2,3-difluorophenyl)-3-(dimethylamino)-6,7,8,9-tetrahydro-5H-cyclohepta[b]pyridin-9-yl 4-(2-oxo-2,3-dihydro-1H-imidazo[4,5-b]pyridin-1-yl)piperidine-1-carboxylate], the IC50 is reported as 0.98 nM.
Work on CC(C)(C)Nc1ccc2c(n1)[C@H](OC(=O)N1CCC(n3c(=O)[nH]c4ncccc43)CC1)CC[C@@H](c1cccc(F)c1F)C2 [Example 16, (6R,9R)-2-(tert-Butylamino)-6-(2,3-difluorophenyl)-6,7,8,9-tetrahydro-5H-cyclohepta[b]pyridin-9-yl 4-(2-oxo-2,3-dihydro-1H-imidazo[4,5-b]pyridin-1-yl)piperidine-1-carboxylate] yielded an IC50 of 6.96 nM.
Nc1ccc2c(n1)[C@H](OC(=O)N1CCC(n3c(=O)[nH]c4ncccc43)CC1)CC[C@@H](c1cccc(F)c1F)C2 [Example 17, (6R,9R)-2-Amino-6-(2,3-difluorophenyl)-6,7,8,9-tetrahydro-5H-cyclohepta[b]pyridin-9-yl 4-(2-oxo-2,3-dihydro-1H-imidazo[4,5-b]pyridin-1-yl)piperidine-1-carboxylate] showed an IC50 of 0.8 nM.
CN(C)c1ccc2c(n1)[C@H](OC(=O)N1CCC(n3c(=O)[nH]c4ncccc43)CC1)CC[C@@H](c1cccc(F)c1F)C2 [Example 18, (6R,9R)-6-(2,3-difluorophenyl)-2-(dimethylamino)-6,7,8,9-tetrahydro-5H-cyclohepta[b]pyridin-9-yl 4-(2-oxo-2,3-dihydro-1H-imidazo[4,5-b]pyridin-1-yl)piperidine-1-carboxylate] showed an IC50 of 0.78 nM.
O=C(O[C@@H]1CC[C@@H](c2cccc(F)c2F)Cc2ccc(Cl)nc21)N1CCC(n2c(=O)[nH]c3ncccc32)CC1 [Example 19, (6R,9R)-2-Chloro-6-(2,3-difluorophenyl)-6,7,8,9-tetrahydro-5H-cyclohepta[b]pyridin-9-yl 4-(2-oxo-2,3-dihydro-1H-imidazo[4,5-b]pyridin-1-yl)piperidine-1-carboxylate] gave an IC50 of 0.76 nM.
Work on O=C(O[C@@H]1CC[C@@H](c2cccc(F)c2F)Cc2cccnc21)N1CCC(n2c(=O)[nH]c3ncccc32)CC1 [Example 21] yielded an IC50 of 0.12 nM.
“(6,9-Trans)-6-(2,3-difluorophenyl)-6,7,8,9-tetrahydro-5H-cyclohepta[b]pyridin-9-yl 2-oxo-1,2-dihydrospiro[benzo[d][1,3]oxazine-4,4′-piperidine]-1′-carboxylate [Example 13]” showed an IC50 of 1.55 nM.
